Measurements published in paper PMC3608651, “A Broad Profile of Co-Dominant Epitopes Shapes the Peripheral Mycobacterium tuberculosis Specific CD8+ T-Cell Immune Response in South African Patients with Active Tuberculosis” (PLoS ONE, 2013).
Read-outs that look alike come from different tables or passages of the source.

Key:
Assay type in all cases: binding
HLA-A*02:01 = HLA-A*02:01 (Homo sapiens, UniProt P04439, D140Y/D185E/D98H/E176V/E277Q/G131W/G231S/I119V/I121R/I166T/I218V/L300P/L318F/N151K/N90K/P208A/P217A/Q86G/Q94H/R138H/R169H/T345S)
HLA-A*24:02 = HLA-A*24:02 (Homo sapiens, UniProt P04439, D101N/D140Y/D185E/E176V/E190D/F33S/G103R/G107R/I119L/I121M/I306V/K335N/L105A/L180Q/L300P/N151K/N90K/Q86E/Q94H/R106L/R138H/R89G/T104I/T345S/V100E/W191G/Y123F); conditions: duplicated experiments, positive binder >40%
HLA-A*30:01 = HLA-A*30:01 (Homo sapiens, UniProt P04439, D140H/D185E/E176W/F33S/G80R/H175R/K168Q/R138E/R41S); conditions: duplicated experiments, positive binder >40%
HLA-A*30:02 = HLA-A*30:02 (Homo sapiens, UniProt P04439, D101N/D140H/D185E/E176R/F33S/G80R/H175R/K168Q/Q94H/R138E/R41S/V100E); conditions: duplicated experiments, positive binder >40%
HLA-A*68:01 = HLA-A*68:01 (Homo sapiens, UniProt P04439, A269V/D185E/E176V/E277Q/E87N/F33Y/G231S/I121M/I166T/I218V/L180W/L300P/L318F/N151K/P208A/P217A/Q86R/R169H/T345S); conditions: duplicated experiments, positive binder >40%
HLA-B*07:02 = HLA-B*07:02 (Homo sapiens, UniProt P01889); conditions: percent relative the binding of positive control peptide […]; duplicated experiments; positive binder >40%
HLA-B*58:01 = HLA-B*58:01 (Homo sapiens, UniProt P01889, A329T/C349S/D201E/D98Y/E176V/E187L/E204Q/E69T/G107R/I218V/I90N/K202T/L105A/L119I/N104I/N87E/Q89R/Q94S/R106L/R155S/R180L/R86G/S101N/S121R/S35A/S48A/T118I/V127L/V306I/V36M/Y140S/Y91M); conditions: duplicated experiments, positive binder >40%
HLA-C*07:01 = HLA-C*07:01 (Homo sapiens, UniProt P10321, K90N/S123Y); conditions: duplicated experiments, positive binder >40%
[1] = percent relative the binding of positive control peptide […], plate-bound monomer 0.5 µg/ml, duplicated experiments, positive binder >40%
[2] = percent relative the binding of positive control peptide […]
[3] = percent relative the binding of positive control peptide FLPSDFFPSV, plate-bound monomer 0.5 µg/ml, duplicated experiments, positive binder >40%
[4] = percent relative the binding of positive control peptide RYLKDQQLL
[5] = percent relative the binding of positive control peptide KTKDIVNGL
[6] = percent relative the binding of positive control peptide KIQNFRVYY
[7] = percent relative the binding of positive control peptide KTGGPIYKR
[8] = percent relative the binding of positive control peptide IAMESIVIW
[9] = percent relative the binding of positive control peptide KYFDEHYEY

Substance | Bind A*02:01 (HLA-A*02:01; [1]) | Bind A*24:02 (HLA-A*24:02; [2]) | Bind A*30:01 (HLA-A*30:01; [2]) | Bind A*30:02 (HLA-A*30:02; [2]) | Bind A*68:01 (HLA-A*68:01; [2]) | Bind B*07:02 (HLA-B*07:02) | Bind B*58:01 (HLA-B*58:01; [2]) | Bind C*07:01 (HLA-C*07:01; [2]) | Bind A*02:01 (HLA-A*02:01) | Bind A*02:01 (HLA-A*02:01; [3]) | Bind A*24:02 (HLA-A*24:02; [4]) | Bind A*30:01 (HLA-A*30:01; [5]) | Bind A*30:02 (HLA-A*30:02; [6]) | Bind A*68:01 (HLA-A*68:01; [7]) | Bind B*58:01 (HLA-B*58:01; [8]) | Bind C*07:01 (HLA-C*07:01; [9])
YHPQQFIYA | 49% | 0% | 3% | 0% | 0% | 0% | 9% | 15% |  |  |  |  |  |  |  | 
ELGGANIPA | 47% | 0% | 0% | 0% | 0% | 0% | 0% | 0% |  |  |  |  |  |  |  | 
IPAEFLENF | 17% | 48% | 0% | 0% | 0% | 47% | 0% | 2% |  |  |  |  |  |  |  | 
LIGLAMGDA | 59% | 0% | 0% | 5% | 0% | 0% | 0% | 0% |  |  |  |  |  |  |  | 
SQGMGPSLI | 50% | 55% | 11% | 0% | 0% | 2% | 11% | 22% |  |  |  |  |  |  |  | 
GNNSPAVYL | 0% | 6% | 0% | 0% | 3% | 0% | 0% | 51% |  |  |  |  |  |  |  | 
SLIGLAMGD |  | 0% | 0% | 47% | 0% | 3% | 0% | 0% | 57 |  |  |  |  |  |  | 
QLNAMKGDL | 71% | 60% | 10% | 0% | 0% | 49% | 0% | 17% |  |  |  |  |  |  |  | 
VQFQSGGNN | 0% | 0% | 0% | 51% | 0% | 0% | 0% | 0% |  |  |  |  |  |  |  | 
YSDWYSPAC | 59% | 0% | 15% | 2% | 18% | 0% | 85% | 5% |  |  |  |  |  |  |  | 
YNYPAMLDH [Rv0288_6–14m2] |  |  |  |  |  |  |  | 0% |  |  |  |  |  |  |  | 
VKPTGSAAI | 0% | 0% | 0% | 0% | 0% | 43% | 0% | 0% |  |  |  |  |  |  |  | 
VYCGNGTPN | 0% | 11% | 8% | 80% | 4% | 3% | 15% | 59% |  |  |  |  |  |  |  | 
SFYSDW YSP | 7% | 0% | 0% | 77% | 0% | 0% | 0% | 0% |  |  |  |  |  |  |  | 
FIYAGSLSA | 79% | 11% | 0% | 21% | 38% | 70% | 2% | 35% |  |  |  |  |  |  |  | 
SW EYW GAQL | 31% | 79% | 0% | 0% | 0% | 1% | 0% | 0% |  |  |  |  |  |  |  | 
VYLLDGLRA | 86% | 87% | 0% | 98% | 13% | 0% | 0% | 9% |  |  |  |  |  |  |  | 
AIQGNVTSI [Rv3875_17-25] |  |  |  |  |  | 4% |  |  |  | 45% | 9% | 0% | 49% | 29% | 21% | 14%
ATELNNALQ [Rv3875_62–70] |  |  |  |  |  | 12% |  |  |  | 8% | 13% | 16% | 45% | 5% | 4% | 8%

Substance | Bind A*02:01 (HLA-A*02:01; [1]) | Bind A*24:02 (HLA-A*24:02; [2]) | Bind A*30:01 (HLA-A*30:01; [2]) | Bind A*30:02 (HLA-A*30:02; [2]) | Bind A*68:01 (HLA-A*68:01; [2]) | Bind B*07:02 (HLA-B*07:02) | Bind B*58:01 (HLA-B*58:01; [2]) | Bind C*07:01 (HLA-C*07:01; [2]) | Bind A*02:01 (HLA-A*02:01) | Bind A*02:01 (HLA-A*02:01; [3]) | Bind A*24:02 (HLA-A*24:02; [4]) | Bind A*30:01 (HLA-A*30:01; [5]) | Bind A*30:02 (HLA-A*30:02; [6]) | Bind A*68:01 (HLA-A*68:01; [7]) | Bind B*58:01 (HLA-B*58:01; [8]) | Bind C*07:01 (HLA-C*07:01; [9])
AGSSAMILA | 56% | 0% | 0% | 0% | 2% | 10% | 12% | 14% |  |  |  |  |  |  |  | 
GSSAMILAA | 66% | 0% | 0% | 0% | 4% | 5% | 29% | 8% |  |  |  |  |  |  |  | 
GANIPAEFL | 41% | 0% | 0% | 0% | 0% | 0% | 16% | 0% |  |  |  |  |  |  |  | 
MILAAYHPQ | 56% | 0% | 0% | 82% | 0% | 0% | 11% | 4% |  |  |  |  |  |  |  | 
GKAGCQTYK | 33% | 19% | 34% | 58% | 72% | 9% | 22% | 0% |  |  |  |  |  |  |  | 
YNAAGGHNA | 16% | 0% | 10% | 53% | 32% | 0% | 46% | 12% |  |  |  |  |  |  |  | 
GSAAIGLSM | 31% | 7% | 0% | 9% | 5% | 38% | 38% | 66% |  |  |  |  |  |  |  | 
FYSDW YSPA | 61% | 10% | 13% | 0% | 0% | 0% | 0% | 0% |  |  |  |  |  |  |  | 
IVMPVGGQS | 44% | 0% | 0% | 56% | 0% | 51% | 0% | 0% |  |  |  |  |  |  |  | 
PTQQIPKLV | 3% | 11% | 10% | 86% | 0% | 5% | 9% | 22% |  |  |  |  |  |  |  | 
YNYPTMLGH [Rv0288_6–14m1] |  |  |  |  |  |  |  | 0% |  |  |  |  |  |  |  | 
TMLDHAGDM [Rv0288_10–18m3] | 24% | 14% |  | 0% |  |  |  |  |  |  |  |  |  |  |  | 
YNYPTMLDH [Rv0288_6–14m3] |  |  |  |  |  |  |  | 0% |  |  |  |  |  |  |  | 
NLGAEIAVE [Rv0288_27–35m1] | 29% |  |  |  |  |  |  |  |  |  |  |  |  |  |  | 
TLQNLGAEI [Rv0288_24–32m1] | 26% | 4% |  |  |  |  |  |  |  |  |  |  |  |  |  | 
VRAYHSMSS [Rv0288_66–74m1] |  |  |  |  |  |  |  | 3% |  |  |  |  |  |  |  | 
QNLGAEIAV [Rv0288_26–34m1] | 28% |  |  |  |  |  | 0% |  |  |  |  |  |  |  |  | 
DLVRAYHSM [Rv0288_64–72m1] |  | 0% |  |  | 4% |  |  |  |  |  |  |  |  |  |  | 
